Laboratory results taken from the Deep4Chem optical property database.
Each block holds one compound with its values, some of them ahead of it.

Assay: solvent given as SMILES
[1] = in O=P(c1ccccc1)(c1ccccc1)c1ccc2oc3ccc(P(=O)(c4ccccc4)c4ccccc4)cc3c2c1
[2] = in O=P(c1ccccc1)(c1ccccc1)c1ccccc1Oc1ccccc1P(=O)(c1ccccc1)c1ccccc1

fluorescence lifetime (in C1CCOC1): 3.22 ns | fluorescence lifetime (in C1COCCO1): 0.48 ns | fluorescence lifetime (in CC#N): 0.59 ns | fluorescence lifetime (in CC(C)O): 4.56 ns | fluorescence lifetime (in CCCCO): 4.01 ns | fluorescence lifetime (in CCCO): 4.68 ns | fluorescence lifetime (in CCOC(C)=O): 0.94 ns | fluorescence lifetime (in CN(C)C=O): 3.37 ns | fluorescence lifetime (in CO): 4.45 ns | fluorescence lifetime (in CS(C)=O): 0.8 ns | fluorescence lifetime (in ClC(Cl)Cl): 3.67 ns | fluorescence lifetime (in O): 5.52 ns
SMILES: Cc1cc(=O)c2ccc(N)cc2o1

fluorescence lifetime (in ClCCl): 0.47 ns
SMILES: C[Si]1(C)c2ccc(-c3ccc(-c4cccs4)s3)cc2C=Cc2cc(-c3ccc(-c4cccs4)s3)ccc21

fluorescence lifetime (in ClCCl): 3.5 ns
SMILES: O=P1(c2ccccc2)C(c2ccccc2)=Cc2cc3ccccc3cc21 (stereo unspecified)

fluorescence lifetime (in CC#N): 2.72 ns | fluorescence lifetime (in ClCCl): 3.13 ns
SMILES: CCN(CC)c1ccc(/N=N/c2nc3ccc(OC)cc3s2)cc1

SMILES: c1ccc(-c2nc(-c3ccccc3)nc(-c3cc(-n4c5ccccc5c5ncccc54)c(-n4c5ccccc5c5ncccc54)c(-n4c5ccccc5c5ncccc54)c3)n2)cc1
fluorescence lifetime [1]: 14.5 ns

fluorescence lifetime (in CC#N): 1.5 ns
SMILES: O=C(O)c1ccc(-c2ccc(-c3nc(-c4ccccc4)c4ccccn34)cc2)s1

fluorescence lifetime (in CCO): 3.26 ns | fluorescence lifetime (in O): 2.44 ns
SMILES: CN(C)c1ccc2c(-c3ccc(C(=O)[O-])cc3C(=O)[O-])c3ccc(=[N+](C)C)cc-3oc2c1

SMILES: c1ccc(-c2cc(-c3ccc(N4c5ccccc5C(c5ccccc5)(c5ccccc5)c5ccccc54)cn3)nc(-c3ccccc3)n2)cc1
fluorescence lifetime [2]: 13.3 ns

fluorescence lifetime (in CC#N): 2.13 ns
SMILES: CN(C)c1ccc(/C=C/c2nc3c4ccccc4c4ccccc4c3o2)cc1

SMILES: CCC1=C(C)C2=Cc3cc(I)c(I)n3[B-](F)(F)[N+]2=C1C
fluorescence lifetime (in C1CCCCC1): 1.04 ns | fluorescence lifetime (in CC(C)=O): 0.753 ns | fluorescence lifetime (in CCO): 0.943 ns | fluorescence lifetime (in CCOC(C)=O): 0.836 ns | fluorescence lifetime (in CO): 0.848 ns | fluorescence lifetime (in OCC(F)(F)F): 0.676 ns

fluorescence lifetime (in C1CCOC1): 6 ns
SMILES: CCCCn1c2ccccc2c2c1c1c3ccccc3n(CCCC)c1c1c3ccccc3n(CCCC)c21

SMILES: c1ccc(-c2nc(-c3ccccc3)nc(-c3ccc(-n4c5ccccc5c5cc6c(cc54)C4(c5ccccc5-c5ccccc54)c4ccccc4-6)cc3)n2)cc1
fluorescence lifetime [2]: 3.9 ns

SMILES: CN(C)c1ccccc1
fluorescence lifetime (in C1CCCCC1): 3 ns

fluorescence lifetime (in ClC(Cl)Cl): 6 ns
SMILES: CC(C)(C)c1ccc(Oc2cc3c4c(cc(Oc5ccc(C(C)(C)C)cc5)c5c6c(Oc7ccc(C(C)(C)C)cc7)cc7c8c(cc(Oc9ccc(C(C)(C)C)cc9)c(c2c45)c86)C(=O)N(c2ccccc2)C7=O)C(=O)N(c2ccccc2)C3=O)cc1

fluorescence lifetime (in ClC(Cl)Cl): 6.55 ns
SMILES: COc1ccc(N(c2ccc(OC)cc2)c2ccc(-c3ccc(-c4ccc(-c5cccs5)c5nsnc45)s3)cc2)cc1

fluorescence lifetime (in C1CCCCC1): 3.2 ns | fluorescence lifetime (in CC#N): 4.2 ns | fluorescence lifetime (in c1ccccc1): 9.3 ns
SMILES: Nc1cccc2c1-c1ccccc1C2=O

SMILES: CC(C)(C)c1ccc2c(c1)c1cc(C(C)(C)C)ccc1n2-c1ccc(-c2ccc3c(c2)C(=O)c2ccc(-c4ccc(-n5c6ccc(C(C)(C)C)cc6c6cc(C(C)(C)C)ccc65)cc4)cc2C3=O)cc1
fluorescence lifetime (in Cc1ccccc1): 12.6 ns | fluorescence lifetime (in c1ccc2c(c1)c1ccccc1n2-c1ccc(-c2ccc(-n3c4ccccc4c4ccccc43)cc2)cc1): 33 ns

fluorescence lifetime (in ClCCl): 2.37 ns
SMILES: Cc1c(C(=O)c2ccccc2)c2ccc3cccc4c5cccc6ccc1c(c65)c2c34

fluorescence lifetime (in CC#N): 0.0001 ns
SMILES: Cc1cc(=O)[nH]c(=O)[nH]1

fluorescence lifetime (in C1CCCCC1): 4.4 ns | fluorescence lifetime (in CC#N): 1.2 ns
SMILES: COc1cc(OC)c2c(c1)C(=O)c1ccc(OC)cc1-2

fluorescence lifetime (in ClCCl): 1.74 ns
SMILES: CCCCc1ccc2c(c1)c1ccc3cccc4c3c1c1c2c2cccc3ccc5c6cc(CCCC)ccc6c4c1c5c32

SMILES: Cc1ccc2c(c1)C1(c3ccccc3-c3ccccc31)c1cc(C)ccc1N2c1ccc(-c2nc(-c3ccccc3)cc(-c3ccccc3)n2)cc1
fluorescence lifetime [1]: 12 ns

SMILES: O=C(O)COc1ccc2[nH]c3c(c2c1)CCCC3=O
fluorescence lifetime (in C1CCOC1): 0.319 ns | fluorescence lifetime (in C1COCCO1): 0.537 ns | fluorescence lifetime (in CC#N): 0.969 ns | fluorescence lifetime (in CCCCCCCCCCCCO): 1.16 ns | fluorescence lifetime (in CCCCCCCCCCO): 1.14 ns | fluorescence lifetime (in CCCCCCCCO): 1.19 ns | fluorescence lifetime (in CCCCCCO): 1.21 ns | fluorescence lifetime (in CCCCO): 1.11 ns | fluorescence lifetime (in CCO): 1.52 ns | fluorescence lifetime (in CCOC(C)=O): 0.464 ns | fluorescence lifetime (in CN(C)C=O): 1.91 ns | fluorescence lifetime (in CO): 1.72 ns | fluorescence lifetime (in CS(C)=O): 2.34 ns | fluorescence lifetime (in Cc1ccccc1): 0.585 ns | fluorescence lifetime (in O): 1.77 ns | fluorescence lifetime (in c1ccccc1): 0.632 ns

fluorescence lifetime (in C1CCOC1): 4.63 ns
SMILES: C(=C\c1cc2ccccc2c2ccccc12)/c1c2ccccc2cc2ccccc12

fluorescence lifetime (in ClCCl): 7.4 ns
SMILES: CC(C)(C)c1ccc(-c2nc3c4ccc(-c5cccc6ccccc56)cc4c4cc(-c5cccc6ccccc56)ccc4c3n2-c2ccc(C(C)(C)C)cc2)cc1

fluorescence lifetime (in CC#N): 4.3 ns | fluorescence lifetime (in c1ccccc1): 9.4 ns
SMILES: CNc1ccc2c(c1)-c1ccccc1C2=O

fluorescence lifetime (in CC#N): 4.03 ns | fluorescence lifetime (in CCO): 4 ns | fluorescence lifetime (in CN(C)C=O): 3.68 ns | fluorescence lifetime (in O): 4.28 ns
SMILES: Nc1ccc2c(-c3ccccc3C(=O)[O-])c3ccc(=[NH2+])cc-3oc2c1

fluorescence lifetime (in CC#N): 0.39 ns | fluorescence lifetime (in CCCCCC): 0.34 ns
SMILES: C(=C\c1ccc(Nc2ccccc2)cc1)/c1ccccc1

fluorescence lifetime (in CN(C)C=O): 0.57 ns
SMILES: CCCCCCOc1ccc(N(c2ccc(OCCCCCC)cc2)c2ccc(-c3sc(-c4ccc(N(c5ccc(OCCCCCC)cc5)c5ccc(OCCCCCC)cc5)cc4)c4nc(-c5ccc(OC)cc5)c(-c5ccc(OC)cc5)nc34)cc2)cc1
